pIC50: −log10 of the molar value. Values belong to the compound of their own block, whether it stands above or below them.
Target: recombinant human His-ATG7 enzyme (Homo sapiens (Human), UniProt O95352)
Assay: ATG7 Enzyme Assay (HTRF/FRET, ATG3-GST and Flag-Gabarap)
Format: biochemical
Conditions: for inhibition at 0.111 µM / inhibition at 0.123 µM / inhibition at 0.069 µM: read-out: Percent Inhibition; for inhibition at 0.069 µM: Concentration 0.069 μM
Method: Example 97: ATG7 Enzyme Assay
The total volume of the ATG7 enzymatic assay is 50 μL and contains 50 mM HEPES Hemisodium (pH 7.5), 0.05% BSA, 0.01% Tween-20, 25 mM NaCl, 5 mM MgCl2, 10 μM ATP, 250 μM GSH, 5 nM ATG3-GST, 5 nM Flag-Gabarap, 100 μM TCEP and 0.15 nM recombinant human His-ATG7 enzyme. The enzymatic reaction mixture, with and without inhibitor, was incubated at 24° C. for 105 min in a 384-well plate before termination with […] of Stop/Detection buffer (0.1M HEPES Hemisodium pH 7.5, 0.05% Tween20, 20 mM EDTA, 410 mM KF, 0.53 nM Europium-Cryptate labeled monoclonal anti-Flag M2 Antibody (CisBio International) and 8.125 μg/ml PHYCOLINK goat anti-GST allophycocyanin (XL-APC) antibody (Prozyme)). After incubation for 2 hours at 24° C., quantification of FRET is performed on the Pherostar™ (BMG Labtech). Percentage inhibition values at a single concentration or enzyme inhibition (IC50) values are determined from those curves. One skilled in the art will appreciate that the values generated either as percentage inhibition at a single concentration or IC50 values are subject to experimental variation.

recombinant human His-ATG7 enzyme, sequence (O95352 whole entry): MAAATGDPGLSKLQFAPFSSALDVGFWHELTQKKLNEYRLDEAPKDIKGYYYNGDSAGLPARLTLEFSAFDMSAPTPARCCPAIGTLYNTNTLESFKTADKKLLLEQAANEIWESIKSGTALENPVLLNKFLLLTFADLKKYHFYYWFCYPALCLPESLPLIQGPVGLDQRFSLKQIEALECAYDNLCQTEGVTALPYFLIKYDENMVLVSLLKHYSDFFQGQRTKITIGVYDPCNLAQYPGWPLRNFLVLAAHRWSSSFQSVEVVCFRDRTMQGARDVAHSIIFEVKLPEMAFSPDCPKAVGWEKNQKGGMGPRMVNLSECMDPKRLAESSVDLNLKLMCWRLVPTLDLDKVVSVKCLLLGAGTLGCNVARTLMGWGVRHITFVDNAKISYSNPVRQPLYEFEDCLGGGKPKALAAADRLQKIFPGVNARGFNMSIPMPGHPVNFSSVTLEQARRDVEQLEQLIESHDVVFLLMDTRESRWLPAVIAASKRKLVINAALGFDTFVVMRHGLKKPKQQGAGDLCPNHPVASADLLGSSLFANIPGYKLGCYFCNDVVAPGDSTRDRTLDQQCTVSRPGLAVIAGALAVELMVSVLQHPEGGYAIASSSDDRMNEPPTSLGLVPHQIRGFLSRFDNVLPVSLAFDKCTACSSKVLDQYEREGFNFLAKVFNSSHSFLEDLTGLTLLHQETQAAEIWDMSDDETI

SMILES: CC(O)c1nn([C@@H]2O[C@H](COS(N)(=O)=O)[C@@H](O)[C@H]2O)c2ncnc(N)c12 (single isomer, unassigned) [Compound I-23a, [(2R,3S,4R,5R)-5-{4-amino-3-[(1R)-1-hydroxyethyl]-1H-pyrazolo[3,4-d]pyrimidin-1-yl}-3,4-dihydroxytetrahydrofuran-2-yl]methyl sulfamate or [(2R,3S,4R,5R)-5-{4-amino-3-[(1S)-1-hydroxyethyl]-1H-pyrazolo[3,4-d]pyrimidin-1-yl}-3,4-dihydroxytetrahydrofuran-2-yl]methyl Sulfamate]
pIC50: < 6.30
Percent Inhibition (Concentration 0.123 μM): 19%

SMILES: COC(=O)c1nn([C@@H]2O[C@H](COS(N)(=O)=O)C(O)C2O)c2ncnc(N)c12 (stereo in doubt) [Compound I-20, methyl 4-amino-1-{(2R,3S,4R,5R)-3,4-dihydroxy-5-[(sulfamoyloxy)methyl]tetrahydrofuran-2-yl}-1H-pyrazolo[3,4-d]pyrimidine-3-carboxylate]
pIC50: 6.30 to 7.00
inhibition at 0.123 µM (Concentration 0.123 μM): 45%

SMILES: COc1nn([C@@H]2O[C@H](COS(N)(=O)=O)[C@@H](O)[C@H]2O)c2ncnc(N)c12 [Compound I-1, [(2R,3S,4R,5R)-5-(4-amino-3-methoxy-1H-pyrazolo[3,4-d]pyrimidin-1-yl)-3,4-dihydroxytetrahydrofuran-2-yl]methyl sulfamate]
pIC50: 7.00 to 7.30
inhibition at 0.123 µM (Concentration 0.123 μM): 51%

SMILES: Cc1nn([C@@H]2O[C@H](COS(N)(=O)=O)[C@@H](O)[C@H]2O)c2ncnc(N)c12 [Compound I-2, [(2R,3S,4R,5R)-5-(4-amino-3-methyl-1H-pyrazolo[3,4-d]pyrimidin-1-yl)-3,4-dihydroxytetrahydrofuran-2-yl]methyl Sulfamate]
pIC50: 6.30 to 7.00
inhibition at 0.123 µM (Concentration 0.123 μM): 42%

SMILES: CC(C)c1nn([C@@H]2O[C@H](COS(N)(=O)=O)[C@@H](O)[C@H]2O)c2ncnc(N)c12 [Compound I-3, [(2R,3S,4R,5R)-5-(4-amino-3-isopropyl-1H-pyrazolo[3,4-d]pyrimidin-1-yl)-3,4-dihydroxytetrahydrofuran-2-yl]methyl Sulfamate]
pIC50: 6.30 to 7.00
inhibition at 0.069 µM: 24%

SMILES: Nc1ncnc2c1c(COCc1ccccc1)nn2[C@@H]1O[C@H](COS(N)(=O)=O)[C@@H](O)[C@H]1O [Compound I-4, [(2R,3S,4R,5R)-5-{4-amino-3-[(benzyloxy)methyl]-1H-pyrazolo[3,4-d]pyrimidin-1-yl}-3,4-dihydroxytetrahydrofuran-2-yl]methyl Sulfamate]
pIC50: 6.30 to 7.00
inhibition at 0.069 µM: 32%

SMILES: CCOc1nn([C@@H]2O[C@H](COS(N)(=O)=O)[C@@H](O)[C@H]2O)c2ncnc(N)c12 [Compound I-5, [(2R,3S,4R,5R)-5-(4-amino-3-ethoxy-1H-pyrazolo[3,4-d]pyrimidin-1-yl)-3,4-dihydroxytetrahydrofuran-2-yl]methyl Sulfamate]
pIC50: 6.30 to 7.00
inhibition at 0.069 µM: 23%

SMILES: CCc1nn([C@@H]2O[C@H](COS(N)(=O)=O)[C@@H](O)[C@H]2O)c2ncnc(N)c12 [Compound I-6, [(2R,3S,4R,5R)-5-(4-amino-3-ethyl-1H-pyrazolo[3,4-d]pyrimidin-1-yl)-3,4-dihydroxytetrahydrofuran-2-yl]methyl Sulfamate]
pIC50: 6.30 to 7.00
inhibition at 0.069 µM: 31%

The remaining lines, values ahead:

pIC50: 7.30 to 7.70
inhibition at 0.111 µM (Concentration 0.111 μM): 71%
SMILES: CC(Sc1nn([C@@H]2O[C@H](COS(N)(=O)=O)[C@@H](O)[C@@H]2F)c2ncnc(N)c12)C1CC1 (mixture of isomers) [Compound I-157, [(2R,3R,4S,5R)-5-(4-amino-3-{[(1R)-1-cyclopropylethyl]sulfanyl}-1H-pyrazolo[3,4-d]pyrimidin-1-yl)-4-fluoro-3-hydroxytetrahydrofuran-2-yl]methyl sulfamate and [(2R,3R,4S,5R)-5-(4-amino-3-{[(1S)-1-cyclopropylethyl]sulfanyl}-1H-pyrazolo[3,4-d]pyrimidin-1-yl)-4-fluoro-3-hydroxytetrahydrofuran-2-yl]methyl sulfamate]

pIC50: 6.30 to 7.00
inhibition at 0.123 µM (Concentration 0.123 μM): 22%
SMILES: CC(O)c1nn([C@@H]2O[C@H](COS(N)(=O)=O)[C@@H](O)[C@H]2O)c2ncnc(N)c12 (single isomer, unassigned) [Compound I-23b, [(2R,3S,4R,5R)-5-{4-amino-3-[(1R)-1-hydroxyethyl]-1H-pyrazolo[3,4-d]pyrimidin-1-yl}-3,4-dihydroxytetrahydrofuran-2-yl]methyl Sulfamate or [(2R,3S,4R,5R)-5-{4-amino-3-[(1S)-1-hydroxyethyl]-1H-pyrazolo[3,4-d]pyrimidin-1-yl}-3,4-dihydroxytetrahydrofuran-2-yl]methyl Sulfamate]

pIC50: 7.00 to 7.30
Percent Inhibition (Concentration 0.123 μM): 71%
SMILES: CC(O)CSc1nn([C@@H]2O[C@H](COS(N)(=O)=O)[C@@H](O)[C@H]2O)c2ncnc(N)c12 (single isomer, unassigned) [Compound I-55a, [(2R,3S,4R,5R)-5-(4-amino-3-{[(2R)-2-hydroxypropyl]sulfanyl}-1H-pyrazolo[3,4-d]pyrimidin-1-yl)-3,4-dihydroxytetrahydrofuran-2-yl]methyl sulfamate or [(2R,3S,4R,5R)-5-(4-amino-3-{[(2S)-2-hydroxypropyl]sulfanyl}-1H-pyrazolo[3,4-d]pyrimidin-1-yl)-3,4-dihydroxytetrahydrofuran-2-yl]methyl Sulfamate]

pIC50: 7.00 to 7.30
inhibition at 0.123 µM (Concentration 0.123 μM): 68%
SMILES: CC(O)CSc1nn([C@@H]2O[C@H](COS(N)(=O)=O)[C@@H](O)[C@H]2O)c2ncnc(N)c12 (single isomer, unassigned) [Compound I-55b, [(2R,3S,4R,5R)-5-(4-amino-3-{[(2R)-2-hydroxypropyl]sulfanyl}-1H-pyrazolo[3,4-d]pyrimidin-1-yl)-3,4-dihydroxytetrahydrofuran-2-yl]methyl sulfamate or [(2R,3S,4R,5R)-5-(4-amino-3-{[(2S)-2-hydroxypropyl]sulfanyl}-1H-pyrazolo[3,4-d]pyrimidin-1-yl)-3,4-dihydroxytetrahydrofuran-2-yl]methyl Sulfamate]

pIC50: 7.00 to 7.30
Percent Inhibition (Concentration 0.111 μM): 63%
SMILES: CCC(C)Sc1nn([C@@H]2O[C@H](COS(N)(=O)=O)[C@@H](O)[C@@H]2F)c2ncnc(N)c12 (single isomer, unassigned) [Compound I-136a]

pIC50: 7.00 to 7.30
inhibition at 0.111 µM (Concentration 0.111 μM): 61%
SMILES: CCC(C)Sc1nn([C@@H]2O[C@H](COS(N)(=O)=O)[C@@H](O)[C@@H]2F)c2ncnc(N)c12 (single isomer, unassigned) [Compound I-136b]

pIC50: 7.00 to 7.30
Percent Inhibition (Concentration 0.111 μM): 64%
SMILES: Cc1ccc(Sc2nn([C@H]3C[C@H](O)C(COS(N)(=O)=O)O3)c3ncnc(N)c23)c(F)c1 (stereo in doubt) [Compound I-211, [(2S,3S,5R)-5-{4-amino-3-[(2-fluoro-4-methylphenyl)sulfanyl]-1H-pyrazolo[3,4-d]pyrimidin-1-yl}-3-hydroxytetrahydrofuran-2-yl]methyl Sulfamate]

pIC50: < 6.30
inhibition at 0.111 µM (Concentration 0.111 μM): 5%
SMILES: Nc1ncnc2c1cnn2[C@H]1C[C@H](O)C(COS(N)(=O)=O)O1 (stereo in doubt) [Compound I-226, [(2S,3S,5R)-5-(4-amino-1H-pyrazolo[3,4-d]pyrimidin-1-yl)-3-hydroxytetrahydrofuran-2-yl]methyl sulfamate]

Reference: US10865208B2, “ATG7 inhibitors and the uses thereof” (Millennium Pharmaceuticals, Inc., priority 2016, dated 2020)
